Assay results as given in PMC10895676, “Antiviral Activity of Lipophilic Nucleoside Tetraphosphate Compounds” (Journal of Medicinal Chemistry, 2024).
“Also recorded” adds a separate entry of the source.

Columns and labels:
[1] = Cytotoxicity, inhibition of CEM/TK– cell proliferation; type: cell-based; conditions: human, CEM/TK– cells (CD4+ T-cells), read-out: toxicity CC50
[2] = Cytotoxicity, inhibition of CEM cell proliferation; type: cell-based; conditions: human, CEM cells (CD4+ T-cells), read-out: toxicity CC50
human DNA polymerase β = target: T1, human DNA polymerase β (Homo sapiens, UniProt P06746); test: Primer extension assay using human DNA polymerase β; type: biochemical; conditions: 60 min, 2 U, 37 °C
T1 construct: purchased Chimerx
Excerpt: Encouraged by the previously obtained results that γ-phosphate-modified-d4TDPs 3, γ-monoalkylated d4TTP derivatives as well as d4TDP were accepted as substrates by HIV-RT,[49],[50],[55],[59]−[61] δ-dialkylated d4T tetraphosphate analogues 4,5, δ-monoalkylated d4T tetraphosphate analogues 20 and 24 and d4T4P were investigated in primer extension assays in the presence of HIV-RT or the three different human DNA polymerases α, β and γ. D4TTP (for the compounds 4–9) and the natural thymidine triphosphate (TTP) were used as reference compounds.
(§1) Figure 6 Primer extension assay using HIV-RT (A), human polymerases α (B), β (C), and γ (D). (Figure 6A). Primer extension assay using HIV-RT (30 min, 6U). Lane 1: (+) dATP, dCTP, dGTP, and TTP with HIV-RT. Lane 2: (−) dATP, dCTP, dGTP, and TTP without HIV-RT. Lane 3: TTP. […] Lane 5: δ-(C4; C18)-d4T4P 4d. […] Lane 7: δ-(C18)-d4T4P 20. Lane 8: δ-C-(C18)-d4T4P 24. Lane 9: d4T4P. Lane 10: d4TTP. Lane 11: d4TDP. HIV-RT assay reaction conditions: 50 mM Tris–HCl (pH 8.6), 10 mM MgCl2, 40 mM KCl, 250 μM dNTPs, HIV-RT (6 U), 0.20 μM DNA hybrid, primer-template-hybrid 0.32 mM in a reaction volume of 10 μL, incubated at 37 °C for 0.5 h, 80 °C for 7 min. Primer extension assays: 50 mA, 45 w for 4 h. (Figure 6B). For human DNA polymerase α assay (60 min, 2 U): Lane 1: (+) dATP, dCTP, dGTP, and TTP with human polymerase α. Lane 2: (−) dATP, dCTP, dGTP, and TTP without human polymerase α. Lane 3: TTP. […] Lane 5: δ-(C4; C18)-d4T4P 4d. […] Lane 7: δ-(C18)-d4T4P 20. Lane 8: δ-C-(C18)-d4T4P 24. Lane 9: d4T4P. Lane 10: d4TTP. Human DNA polymerase α assay conditions: 60 mM Tris–HCl (pH 8), 5 mM Mg(OAc)2, 100 mM KCl, 1.0 mM dithiothreitol, 0.1 mM spermine, 0.01% (w/v) bovine serum albumin, 250 μM dNTPs, 2 U human polymerase α, 0.20 μM DNA hybrid, and primer-template-hybrid 0.32 mM in a reaction volume of 10 μL, incubated at 37 °C for 1 h, 80 °C for 7 min. Primer extension assays: 50 mA, 45 w for 3 h. (Figure 6C). For human DNA polymerase β assay (60 min, 2 U): Lane 1: (+) dATP, dCTP, dGTP, and TTP with human polymerase β. Lane 2: (−) dATP, dCTP, dGTP, and TTP without human polymerase β. Lane 3: TTP. […] Lane 5: δ-(C4; C18)-d4T4P 4d. […] Lane 7: δ-(C18)-d4T4P 20. Lane 8: δ-C-(C18)-d4T4P 24. Lane 9: d4T4P. Lane 10: d4TTP. Human DNA polymerase β assay conditions: 50 mM Tris–HCl (pH 8.7), 10 mM Mg(OAc)2, 100 mM KCl, 1.0 mM dithiothreitol, 0.1 mM spermine, 0.01% (w/v) bovine serum albumin, 15% glycerol, 250 μM dNTPs, 2 U human DNA polymerase β, 0.20 μM DNA hybrid, and primer-template-hybrid 0.32 mM in a reaction volume of 10 μL, incubated at 37 °C for 1 h, 80 °C for 7 min. Primer extension assays: 50 mA, 45 w for 3 h. (Figure 6D), For the human DNA polymerase γ assay (120 min, 2 U): Lane 1: (+) dATP, dCTP, dGTP, and TTP with human polymerase γ. Lane 2: (−) dATP, dCTP, dGTP, and TTP without human polymerase γ. Lane 3: TTP. […] Lane 5: δ-(C4; C18)-d4T4P 4d. […] Lane 7: δ-(C18)-d4T4P 20. Lane 8: δ-C-(C18)-d4T4P 24. Lane 9: d4T4P. Lane 10: d4TTP. Human polymerase γ assay conditions: 60 mM Tris–HCl (pH 8), 5 mM Mg(OAc)2, 1.0 mM dithiothreitol, 0.1 mM spermine, 0.01% (w/v) bovine serum albumin, 250 μM dNTPs, 2 U human polymerase γ, 0.5 μM MnCl2, 0.20 μM DNA hybrid, primer-template-hybrid 0.32 mM in a reaction volume of 10 μL, incubated at 37 °C for 2 h, 80 °C for 7 min. Primer extension assays: 50 mA, 45 w for 3 h.
HIV-RT and human polymerases α, β, and γ were bought from Roboklon and Chimerx. The fluorescent-labeled primer and template were obtained from Metabion. […]

HIV-2 (ROD) [3] = test: Anti-HIV replication assay, HIV-2 (ROD) in thymidine kinase-deficient CEM/TK– cells; type: cell-based; conditions: Human immunodeficiency virus 2, CEM-TK(-), read-out: CEM/TK– HIV-2 (ROD) EC50
Method: (§2) Inhibition of HIV-1(HE)- and HIV-2(ROD)-induced cytopathogenicity in wild-type CEM/0 CEM CD4^+ T-cells and thymidine kinase-deficient CEM/TK^– cell cultures was measured in microtiter 96-well plates containing ∼3 × 10^5 CEM cells/mL infected with 100 CCID50 of HIV per milliliter and containing appropriate dilutions of the test compounds. After 4–5 days of incubation at 37 °C in a CO2-controlled humidified atmosphere, virus-induced cellular effects and syncytia cell formation were examined microscopically.

[4] = Chemical hydrolysis in aqueous buffers (PBS pH 7.3 / 8.0, citrate buffer pH 2.0), RP18-HPLC; type: physicochemical; conditions: phosphate buffered saline; 25 mM PBS, pH 7.3, 37 °C; read-out: PBS pH 7.3 t1/2 (converted)
Method: All metabolite mixtures were analyzed and quantified by means of analytical RP18-HPLC (UV detection).
The solution was incubated at 37 °C in a thermomixer. […] for each extraction and stored at −30 °C. When testing, samples were warmed up to room temperature, and 25 or 20 μL of the liquid was taken and injected into the analytical RP-18-HPLC instrument. Further aliquots were taken for monitoring the kinetic hydrolysis.
5.88 g of citric acid and 3.58 g of NaCl were dissolved in 82 mL of hydrochloric acid (0.1 mol/L). Then, sodium hydroxide was added to adjust the pH to 2.0.

HIV-1 (HE) = test: Anti-HIV replication assay, HIV-1 (HE) in wild-type CEM/0 cells; type: cell-based; conditions: Human immunodeficiency virus 1, CCRF-CEM, read-out: HIV-1 (HE) EC50
Method: as §2, with “microscopically. The EC50 (50% effective concentration) was defined as the compound concentration required to inhibit HIV-induced giant cell formation by 50%.” for “microscopically.”

HIV-2 (ROD) [5] = test: Anti-HIV replication assay, HIV-2 (ROD) in wild-type CEM/0 cells; type: cell-based; conditions: Human immunodeficiency virus 2, CCRF-CEM, read-out: HIV-2 (ROD) EC50
Method: as §2

HIV-RT = target: T2, HIV-RT (Human immunodeficiency virus type 1 group M subtype B, UniProt P03366); test: Primer extension assay using HIV-RT; type: biochemical; conditions: 30 min, 6 U HIV-RT, 37 °C
T2 construct: HIV-RT HIV reverse transcriptase; purchased Roboklon
Method: as §1
HIV-RT and human polymerases α, β, and γ were bought from Roboklon and Chimerx. The fluorescent-labeled primer and template were obtained from Metabion.
For the annealing of the primer/template mixture, 40 μL of the 10 μM primer and 60 μL of the 10 μM template were incubated for 5 min at 95 °C. Then, for optimal annealing, the temperature was reduced over a period of 2 h to 20 °C and incubated again for 20 min at 20 °C.
For the primer extension, the reaction mixture was incubated for 30 min for the HIV-RT, 60 min for the human DNA polymerase α, and 120 min for the human DNA polymerases β and γ at 37 °C, followed by 7 min at 80 °C.

| Structure (SMILES) | CC50 [1] [µM] | CC50 [2] [µM] | substrate for human DNA polymerase β (primer extension) (human DNA polymerase β) | EC50 (HIV-2 (ROD) [3]) [µM] | half-life at 1.9 mM [4] [h] | EC50 (HIV-1 (HE)) [µM] | EC50 (HIV-2 (ROD) [5]) [µM] | substrate for HIV-RT (primer extension) (HIV-RT) |
| --- | --- | --- | --- | --- | --- | --- | --- | --- |
| CCCCOP(=O)(OCCCC)OP(=O)(O)OP(=O)(O)OP(=O)(O)OC[C@@H]1C=C[C@H](n2cc(C)c(=O)[nH]c2=O)O1 [4a, δ-(Alkyl-C4; alkyl-C4)-d4T4P] | > 100 | > 100 | substrate | 14.8 ± 2.8 | 167 | 0.22 ± 0.13 | 0.16 ± 0.04 |  |
| Cc1cn(C2C=CC(COP(=O)(O)OP(=O)(O)O)O2)c(=O)[nH]c1=O (stereo not shown) [d4TDP, reference compound] |  |  |  |  |  |  |  | good substrates |
| Cc1cn([C@H]2C=C[C@@H](COP(=O)(O)OP(=O)(O)OP(=O)(O)O)O2)c(=O)[nH]c1=O [d4TTP, d4T triphosphate, reference compound] |  |  | substrate |  |  |  |  | incorporation of d4TMP was detected; also recorded: good substrates |
